Values of other authors, collected in US12133892B2, “Methods and compositions for increasing susceptibility to radiation treatment by inhibiting suppression of numerical chromosomal instability of cancer cells” (MEMORIAL SLOAN KETTERING CANCER CENTER, priority 2015, dated 2024).
pIC50, pKi: −log10 of the molar value. Each block holds one molecule with its values, some of them ahead of it.

What was measured:
Bub1 = Bub1 (Homo sapiens, UniProt O43683)
Kif2b = conditions: read-out: IC50 in inhibiting Kif2b
MCAK = biological target: T1, MCAK (Homo sapiens, UniProt Q99661); conditions: read-out: IC50 in inhibiting MCAK
T1 sequence (Q99661 1-725): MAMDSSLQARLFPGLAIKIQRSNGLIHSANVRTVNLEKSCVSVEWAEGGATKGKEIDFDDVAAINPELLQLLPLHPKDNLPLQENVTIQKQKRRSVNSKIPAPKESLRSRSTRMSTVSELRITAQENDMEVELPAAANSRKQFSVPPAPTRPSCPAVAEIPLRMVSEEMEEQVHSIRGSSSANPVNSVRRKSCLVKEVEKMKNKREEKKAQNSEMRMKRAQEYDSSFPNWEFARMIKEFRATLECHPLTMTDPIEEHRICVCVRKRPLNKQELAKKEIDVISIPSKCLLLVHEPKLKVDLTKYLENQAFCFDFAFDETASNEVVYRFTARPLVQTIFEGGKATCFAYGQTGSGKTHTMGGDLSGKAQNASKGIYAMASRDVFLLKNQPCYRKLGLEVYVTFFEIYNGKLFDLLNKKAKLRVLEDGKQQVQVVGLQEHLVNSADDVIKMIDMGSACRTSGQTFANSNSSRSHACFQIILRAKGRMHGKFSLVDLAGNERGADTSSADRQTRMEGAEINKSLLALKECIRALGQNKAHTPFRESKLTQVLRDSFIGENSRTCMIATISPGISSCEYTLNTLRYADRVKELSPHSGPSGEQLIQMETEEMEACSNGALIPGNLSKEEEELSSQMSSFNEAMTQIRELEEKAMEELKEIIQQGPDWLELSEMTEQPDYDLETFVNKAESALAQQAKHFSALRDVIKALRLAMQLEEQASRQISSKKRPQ

human glioblastoma = conditions: 100 mg/kg
[1] = tested on: triple negative breast cancer, colon cancer and liver cancer; conditions: animal models of triple negative breast cancer
[2] = mice, 7 days, 7.5, 22.5, 75.0 mg/kg twice a day oral
breast cancer model = conditions: mice, twice a day for 28 days, orally 10, 25, 50 mg/kg
PLK4 = biological target: T2, PLK4 (Homo sapiens, UniProt O00444); conditions: in vitro; read-out: inhibition constant (Ki)
T2 sequence (O00444 1-970): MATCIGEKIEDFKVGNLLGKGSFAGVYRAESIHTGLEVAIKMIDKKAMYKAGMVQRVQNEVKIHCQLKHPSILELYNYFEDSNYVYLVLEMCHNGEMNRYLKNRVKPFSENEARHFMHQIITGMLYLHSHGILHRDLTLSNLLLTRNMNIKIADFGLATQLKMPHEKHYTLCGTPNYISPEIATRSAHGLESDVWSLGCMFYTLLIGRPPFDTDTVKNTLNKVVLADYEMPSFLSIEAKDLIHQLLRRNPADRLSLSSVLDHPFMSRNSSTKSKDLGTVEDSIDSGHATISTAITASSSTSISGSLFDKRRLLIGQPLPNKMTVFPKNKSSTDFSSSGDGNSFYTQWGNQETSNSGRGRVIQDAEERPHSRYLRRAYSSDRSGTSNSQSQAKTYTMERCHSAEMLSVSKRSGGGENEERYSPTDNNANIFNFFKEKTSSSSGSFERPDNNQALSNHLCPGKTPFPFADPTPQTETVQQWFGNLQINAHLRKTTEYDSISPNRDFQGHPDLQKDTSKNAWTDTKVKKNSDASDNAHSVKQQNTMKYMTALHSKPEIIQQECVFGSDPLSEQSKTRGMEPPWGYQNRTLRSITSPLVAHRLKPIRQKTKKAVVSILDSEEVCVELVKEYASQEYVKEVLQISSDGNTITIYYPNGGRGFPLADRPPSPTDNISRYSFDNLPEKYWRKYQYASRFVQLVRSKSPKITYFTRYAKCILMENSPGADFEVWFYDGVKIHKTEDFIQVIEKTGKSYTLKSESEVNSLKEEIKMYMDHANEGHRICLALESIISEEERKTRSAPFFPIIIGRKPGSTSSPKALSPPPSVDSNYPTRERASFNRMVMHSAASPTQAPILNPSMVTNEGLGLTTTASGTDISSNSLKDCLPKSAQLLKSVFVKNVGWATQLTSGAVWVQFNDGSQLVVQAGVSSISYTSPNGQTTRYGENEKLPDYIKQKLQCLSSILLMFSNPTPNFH

Bub1, sequence (O43683 whole entry, species assumed): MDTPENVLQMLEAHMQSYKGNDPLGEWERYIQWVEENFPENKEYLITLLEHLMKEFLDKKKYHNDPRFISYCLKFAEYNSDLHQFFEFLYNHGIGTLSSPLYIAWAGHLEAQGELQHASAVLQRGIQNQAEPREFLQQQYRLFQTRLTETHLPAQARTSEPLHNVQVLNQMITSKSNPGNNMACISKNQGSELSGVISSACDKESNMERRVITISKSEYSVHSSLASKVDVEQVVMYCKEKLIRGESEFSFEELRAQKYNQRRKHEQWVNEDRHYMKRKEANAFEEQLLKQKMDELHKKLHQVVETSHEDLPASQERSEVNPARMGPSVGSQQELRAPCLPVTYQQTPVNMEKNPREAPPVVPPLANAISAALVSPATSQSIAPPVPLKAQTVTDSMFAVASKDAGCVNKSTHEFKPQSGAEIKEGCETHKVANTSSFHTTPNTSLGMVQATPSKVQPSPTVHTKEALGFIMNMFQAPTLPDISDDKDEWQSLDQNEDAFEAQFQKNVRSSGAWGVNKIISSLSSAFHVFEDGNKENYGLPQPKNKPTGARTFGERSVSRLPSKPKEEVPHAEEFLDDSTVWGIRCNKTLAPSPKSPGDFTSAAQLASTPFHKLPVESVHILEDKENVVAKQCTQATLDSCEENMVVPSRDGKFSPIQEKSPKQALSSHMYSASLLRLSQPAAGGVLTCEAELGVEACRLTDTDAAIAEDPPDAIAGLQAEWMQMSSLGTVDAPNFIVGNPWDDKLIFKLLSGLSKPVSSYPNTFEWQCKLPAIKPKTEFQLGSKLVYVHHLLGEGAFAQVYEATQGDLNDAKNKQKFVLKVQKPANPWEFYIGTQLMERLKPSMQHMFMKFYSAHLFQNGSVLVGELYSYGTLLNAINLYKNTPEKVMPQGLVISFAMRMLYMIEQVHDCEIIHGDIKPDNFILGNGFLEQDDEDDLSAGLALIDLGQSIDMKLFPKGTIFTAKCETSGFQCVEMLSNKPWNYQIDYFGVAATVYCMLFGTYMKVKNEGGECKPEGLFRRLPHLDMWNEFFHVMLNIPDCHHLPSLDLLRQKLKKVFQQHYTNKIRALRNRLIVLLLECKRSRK

- pIC50 (Bub1): ~6.60
SMILES: CC(C)(C)n1nc(Cc2ccccc2O)c2c(N)ncnc21 [2OH-BNPP1]

SMILES: COc1ccc2c(c1)[C@]1(C[C@H]1c1ccc3c(/C=C/c4ccc(CN5C[C@@H](C)O[C@@H](C)C5)cc4)n[nH]c3c1)C(=O)N2 [CFI-400945]
- chromosome missegregation rates (breast cancer cell lines): increase chromosome missegregation rates

- pIC50 (Kif2b): 5.92
- pIC50 (MCAK): 5.34
SMILES: CC1=C(C(=O)OC(C)C)C(c2ccc(Cl)cc2)n2c(s/c(=C\c3ccc(OCC(=O)O)cc3)c2=O)=N1 (stereo not drawn) [DHTP, (Z)-2-(4-((5-(4-chlorophenyl)-6-(isopropoxycarbonyl)-7-methyl-3-oxo-3,5-dihydro-2H-thiazolo[3,2-a]pyrimidin-2-ylidene)methyl)phenoxy)acetic acid]

SMILES: CCc1cccc(CC)c1NC(=O)c1nn(C)c2c1CCc1cnc(Nc3ccc(C(=O)NC4CCN(C)CC4)cc3OC(F)(F)F)nc1-2 [NMS-P715]
- radiosensitization of human glioblastoma (human glioblastoma): enhances radiosensitization of human glioblastoma

SMILES: COc1cc2c(cc1F)C(c1ccccc1Cl)=Nc1c(n[nH]c1C)N2 [R1530]
- expression of mitotic checkpoint kinase BubR1 (BubR1): downregulates

SMILES: COc1ccc(Oc2cc(C)c(-c3csc(NC(=O)c4ccncc4)n3)c(C)c2)cc1 [TAI-1]
- oral efficacy in vivo [1]: effective orally
- change in body weight, organ weight, and plasma indices [2]: no significant change

SMILES: COCCOc1cnc(Sc2cc(C)c(-c3csc(NC(=O)c4ccncc4)n3)c(C)c2)cn1 [TAI-95]
- oral efficacy in vivo (breast cancer model): excellent oral efficacy

SMILES: COc1c(Nc2cc(C)[nH]n2)nc(Sc2ccc(S(=O)(=O)Cc3cccc([N+](=O)[O-])c3F)cc2F)nc1N1CCCCC1 [centrinone-B]
- pKi (PLK4): 9.22
- centrosome depletion at concentration (centrosome): 500 nM

SMILES: COc1c(Nc2cc(C)[nH]n2)nc(Sc2ccc(S(=O)(=O)Cc3cccc([N+](=O)[O-])c3F)cc2F)nc1N1CCOCC1 [centrinone]
- centrosome depletion at concentration (centrosome): 100 nM
